# Measurements taken from patent publication US9593068B2, “Derivatives of tartaric acid” (RATIOPHARM GMBH, priority 2013, dated 2017).
# Test: Kinetics of MMF-release during incubation in intestinal fluid of the minipig (LC-MS quantification of MMF)
# Type: in vitro ADME, Göttingen SPF minipig
# Settings: diluted small intestinal fluid (1/20 v/v with 50 mM KH2PO4, pH 6.8), 37° C., samples at 0-120 min; reference DMF; FIG. 1 / FIG. 2
# Method: Investigation and Comparision of the Kinetics of MMF-Release of the Different Compounds of the Present Invention and DMF During Incubation in Intestinal Fluid of the Minipig
# Intestinal fluid samples were prepared at CiToxLAB Scantox A/S. The samples were taken from 1 female Göttingen SPF minipig from CiToxLAB Scantox A/S standard stock, originally obtained from Ellegaard Göttingen Minipigs A/S, DK-4261 Dalmose, Denmark. The minipig was 10 months old and the body weight was 21 kg. The minipig was identified by an individual number tagged to the pinna of one ear (animal number is documented in the raw data).
# The minipig was fasted for approximately 28 hours before sampling of intestinal fluid. On the day of sampling, the minipig was weighed and anaesthetised by an intramuscular injection in the neck or in the left hind leg (about 0.3 ml per kg body weight) of a mixture of Zoletil 50 Vet., Virbac, France (125 mg tiletamine and 125 mg zolazepam), Rompun Vet., Bayer, Germany (20 mg xylazine/ml, 6.5 ml), Ketaminol Vet., Veterinaria AG, Switzerland (100 mg ketamine/ml, 1.5 ml) and Methadon DAK, Nycomed Danmark, Denmark (10 mg methadon/ml, 2.5 ml).
# Intestinal fluid was obtained by flushing one jejunal segment, measuring 30.2 cm, with saline. Intestinal fluid together with saline used for flushing was placed in centrifuge tubes. All samples were frozen at −70° C. and shipped on dry ice to the Sponsor for further use.
# 2.1.1. Analytical Instrument • Instrument: Acquity UPLC system coupled with a TQ detector (triple quadruple mass spectrometer)
# Calibration solutions were prepared by serial dilution of SSMMF; diluted small intestinal fluid (diluted by 1/20 v/v with 50 mM KH2PO4, pH 6.8; (dil IF) was used as matrix. The dilution scheme is given below:
# 50 μl sample (calibration solution or sample of an incubation experiment with MMF prodrugs) was mixed with 50 μl WSISTD, 20 μl formic acid and 100 μl acetonitrile. This mixture was vortexed for 15 sec and centrifuged (13,000 rpm, 3 min). Thereafter, 4 μl of the supernatant were subjected to LC-MS analysis.
# 2.2. Incubation Experiments with DMF (Reference) and Compounds of the Invention
# Stock solutions were prepared in DMSO. Concentrations in stock solutions were 5.00, 2.50 and 1.67 mmol for compounds with one, two and three molar MMF equivalents.
# In a HPLC glass vial, 8 μl of stock solution were mixed with 792 μl dil IF and the mixture was stirred (250 rpm) in a water bath (T=37° C.).
# Immediately after mixing as well as at t=15 min, 30 min, 60 min, 90 min and 120 min, 50 μl were withdrawn and prepared for LC-MS analysis as described in chapter. 2.1.3.
# Incubations were continued and in case the result of analysis of the 120 min indicated the presence of remaining intact MMF prodrug, additional samples were taken (t=360 or 420 min and at 1,260 or 1,320 min) and analysed.
# The concentration/peak area ratio data pairs were subjected to regression analysis with 1/x weighting and the resulting calibration equation was used to quantify the MMF content in incubation samples.
compound,measurement,value
"COC(=O)/C=C/C(=O)OCCN(CCO)CCOC(=O)/C=C/C(=O)OC [Example 3, (2-Hydroxy-ethyl)-bis-[2-((E)-3-methoxycarbonyl-acryloyloxy)-ethyl]-amine]",hydrolyzation (to MMF) compared to DMF,modified hydrolyzation compared to DMF
same,release kinetics (MMF release) compared to DMF,significantly slower than the one of DMF
"COC(=O)/C=C/C(=O)O[C@@H](C(=O)OC(C)C)[C@@H](OC(=O)/C=C/C(=O)OC)C(=O)OC(C)C [Example 2, (E)-But-2-enedioic acid (1R,2R)-1,2-bis-isopropoxycarbonyl-2-((E)-3-methoxycarbonyl-acryloyloxy)-ethyl ester methyl ester]",hydrolyzation (to MMF) compared to DMF,modified hydrolyzation compared to DMF
same,release kinetics (MMF release) compared to DMF,significantly slower than the one of DMF
"CCOC(=O)[C@H](OC(=O)/C=C/C(=O)OC)[C@@H](OC(=O)/C=C/C(=O)OC)C(=O)OCC [Example 1, (E)-But-2-enedioic acid (1R,2R)-1,2-bis-ethoxy-carbonyl-2-((E)-3-methoxycarbonyl-acryloyloxy)-ethyl ester methyl ester]",hydrolyzation (to MMF) compared to DMF,modified hydrolyzation compared to DMF
same,release kinetics (MMF release) compared to DMF,significantly slower than the one of DMF
